Tests used:
Assay type in all cases: biochemical
[1] = target: T1, calpain-I isolated from human erythrocytes (Homo sapiens, UniProt P07384); assay: Calpain I enzyme inhibition in vitro (kinetic fluorescence assay); conditions: apparent Ki from IC50 (Cheng-Prussoff); 20 nM calpain-I, 100 μM Suc-Leu-Tyr-AMC, pH 7.3, room temperature
T1 construct: calpain-I—isolated from human erythrocytes; purchased Calbiochem 208713; host or cells: human erythrocytes (tissue-derived)
T1 sequence (P07384 1-714): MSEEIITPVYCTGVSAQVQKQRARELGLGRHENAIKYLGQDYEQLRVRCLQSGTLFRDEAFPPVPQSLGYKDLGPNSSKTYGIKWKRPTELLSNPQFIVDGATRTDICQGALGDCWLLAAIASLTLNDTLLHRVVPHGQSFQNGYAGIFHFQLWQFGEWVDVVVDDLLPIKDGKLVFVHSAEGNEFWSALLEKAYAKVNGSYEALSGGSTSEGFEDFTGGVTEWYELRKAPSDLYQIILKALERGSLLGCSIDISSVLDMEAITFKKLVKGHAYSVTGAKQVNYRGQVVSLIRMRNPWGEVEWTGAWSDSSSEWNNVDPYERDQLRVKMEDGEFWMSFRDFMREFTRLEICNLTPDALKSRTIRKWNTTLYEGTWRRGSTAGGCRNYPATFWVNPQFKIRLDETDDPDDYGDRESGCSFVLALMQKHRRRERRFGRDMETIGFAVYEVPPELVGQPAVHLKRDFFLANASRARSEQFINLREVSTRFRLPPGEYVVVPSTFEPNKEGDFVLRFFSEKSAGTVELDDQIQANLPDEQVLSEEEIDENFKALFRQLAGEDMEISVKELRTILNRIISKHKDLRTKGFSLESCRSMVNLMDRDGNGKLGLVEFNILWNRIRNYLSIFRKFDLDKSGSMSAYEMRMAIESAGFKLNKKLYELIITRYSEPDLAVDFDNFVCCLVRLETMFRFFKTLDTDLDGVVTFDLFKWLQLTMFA
T1 sequence (P04632 1-268 partner): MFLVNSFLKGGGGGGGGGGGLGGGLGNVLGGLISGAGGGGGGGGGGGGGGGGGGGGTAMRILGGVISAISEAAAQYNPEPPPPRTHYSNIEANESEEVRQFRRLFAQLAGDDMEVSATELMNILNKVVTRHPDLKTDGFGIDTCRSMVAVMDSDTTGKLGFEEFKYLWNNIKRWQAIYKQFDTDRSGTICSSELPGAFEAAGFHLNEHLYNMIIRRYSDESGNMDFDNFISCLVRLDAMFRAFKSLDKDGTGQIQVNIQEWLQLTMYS
Description: (§1) Testing for blockade of the corresponding enzymic activities was carried out by means of kinetic fluorescence assays (excitation 390 nm, emission 460 nm).
(§2) Apparent Ki values were calculated from the experimentally determined IC50 values by the Cheng-Prussoff relation assuming a reversible competitive enzyme inhibition. The Km values of the substrates used under the assay conditions indicated above were: 90 μM (Z-Phe-Arg-AMC, cathepsin B), 10 μM (Z-Gly-Pro-Arg-AMC, cathepsin K), 2 μM (Z-Phe-Arg-AMC, cathepsin L), and 30 μM (Z-Val-Val-Arg-AMC, cathepsin S).
(§3) The indicated Ki values are averages of the inhibition constants calculated on the basis of 2 to 4 independent dose-effect plots.
(§4) • 20 nM calpain-I—isolated from human erythrocytes (Calbiochem #208713), 100 μM Suc-Leu-Tyr-AMC (Bachem #I-1355) as substrate in buffer with 62 mM imidazole, 0.3 mM CaCl2, 0.10% CHAPS, 0.05% BSA, 1 mM DTT at pH 7.3 and room temperature. 1. Cathepsin B: • 0.25 nM cathepsin B—isolated from human liver (Calbiochem #219362), 100 μM Z-Phe-Arg-AMC (Bachem #I-1160) as substrate 50 mM MES, 2 mM EDTA, 0.05% Brij 35, 2.5 mM L-cysteine, pH 6.0, room temperature. 3. Cathepsin K: • 3 nM cathepsin K activated from recombinant human procathepsin K from E. coli (Calbiochem #342001), 10 μM Z-Gly-Pro-Arg-AMC (Biomol #P-142) as substrate in 50 mM MES, 2 mM EDTA, 0.05% Brij 35, 2.5 mM L-cysteine, pH 6.0, room temperature. 4. Cathepsin L: • 1 nM cathepsin L—isolated from human liver (Calbiochem #219402), 2 μM Z-Phe-Arg-AMC (Bachem #I-1160) as substrate in 50 mM MES, 2 mM EDTA, 0.05% Brij 35, 2.5 mM L-cysteine, pH 6.0, room temperature. 5. Cathepsin S: • 0.5 nM recombinant human cathepsin S from E. coli (Calbiochem #219343), 20 μM Z-Val-Val-Arg-AMC (Bachem #I-1540) as substrate in 50 mM MES, 2 mM EDTA, 0.05% Brij 35, 2.5 mM L-cysteine, pH 6.0, room temperature.

[2] = target: T2, cathepsin B isolated from human liver (Homo sapiens, UniProt P07858); assay: Cathepsin B enzyme inhibition in vitro (kinetic fluorescence assay); conditions: Ki(cathepsin B)/Ki(calpain) ratio
T2 construct: cathepsin B—isolated from human liver; purchased Calbiochem 219362; host or cells: human liver (tissue-derived)
Description: as §1, §2, §3, §4

[3] = target: T3, cathepsin K activated from recombinant human procathepsin K (Homo sapiens, UniProt P43235); assay: Cathepsin K enzyme inhibition in vitro (kinetic fluorescence assay); conditions: Ki(cathepsin K)/Ki(calpain) ratio
T3 construct: purchased Calbiochem 342001; host or cells: E. coli
T3 sequence (P43235 115-329): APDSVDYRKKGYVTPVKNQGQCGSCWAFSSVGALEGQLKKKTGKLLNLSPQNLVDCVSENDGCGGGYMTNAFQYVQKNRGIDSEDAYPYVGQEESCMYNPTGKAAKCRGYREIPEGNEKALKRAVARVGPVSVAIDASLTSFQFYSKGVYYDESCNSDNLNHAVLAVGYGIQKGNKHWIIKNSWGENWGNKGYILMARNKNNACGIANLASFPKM
Description: as §1, §2, §3, §4

[4] = target: T4, cathepsin L isolated from human liver (Homo sapiens, UniProt P07711); assay: Cathepsin L enzyme inhibition in vitro (kinetic fluorescence assay); conditions: Ki(cathepsin L)/Ki(calpain) ratio
T4 construct: cathepsin L—isolated from human liver; purchased Calbiochem 219402; host or cells: human liver (tissue-derived)
T4 sequence (P07711 114-333): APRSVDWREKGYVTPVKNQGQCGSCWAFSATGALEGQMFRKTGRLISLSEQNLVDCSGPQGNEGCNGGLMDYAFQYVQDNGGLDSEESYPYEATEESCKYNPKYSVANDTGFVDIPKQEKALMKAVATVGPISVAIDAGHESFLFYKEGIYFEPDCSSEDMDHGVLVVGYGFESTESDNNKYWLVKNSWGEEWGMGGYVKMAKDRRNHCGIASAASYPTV
Description: as §1, §2, §3, §4

[5] = target: T5, recombinant human cathepsin S (Homo sapiens, UniProt P25774); assay: Cathepsin S enzyme inhibition in vitro (kinetic fluorescence assay); conditions: Ki(cathepsin S)/Ki(calpain) ratio
T5 construct: purchased Calbiochem 219343; host or cells: E. coli
T5 sequence (P25774 115-331): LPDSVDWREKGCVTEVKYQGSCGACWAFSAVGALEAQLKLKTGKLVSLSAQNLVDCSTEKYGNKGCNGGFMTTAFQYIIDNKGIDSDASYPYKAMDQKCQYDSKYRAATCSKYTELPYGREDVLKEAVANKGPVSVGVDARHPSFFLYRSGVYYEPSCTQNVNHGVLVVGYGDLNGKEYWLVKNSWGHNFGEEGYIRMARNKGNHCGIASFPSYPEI
Description: as §1, §2, §3, §4

Row | Compound | Ki [1] [nM] | Sel cat. B [2] | Sel cat. L [4] | Sel cat. K [3] | Sel cat. S [5]
1 | NC(=O)C(=O)C(Cc1ccccc1)NC(=O)[C@H]1CCC(=O)N1Cc1ccccc1C(F)(F)F (stereo partly drawn) [Example 17, (2R)—N-(4-Amino-3,4-dioxo-1-phenylbutan-2-yl)-5-oxo-1-[2-(trifluoromethyl)benzyl]-pyrrolidine-2-carboxamide] | 50 to 100 | ++ (10<Ki(cathepsin B)/Ki(calpain)≦30) | +++ (Ki(cathepsin L)/Ki(calpain) ratio of >30) | +++ (Ki(cathepsin K)/Ki(calpain) ratio of >30) | +++ (Ki(cathepsin S)/Ki(calpain) ratio of >100)
2 | O=C(NC1CC1)C(=O)C(Cc1ccccc1)NC(=O)[C@H]1CCC(=O)N1Cc1c(Cl)cccc1Cl (mixture of isomers) [Example 61, (2R)—N-(4-(Cyclopropylamino)-3,4-dioxo-1-phenylbutan-2-yl)-1-(2,6-dichlorobenzyl)-5-oxopyrrolidine-2-carboxamide] | 100 to 600 | + (5<Ki(cathepsin B)/Ki(calpain)≦10) | +++ (Ki(cathepsin L)/Ki(calpain) ratio of >30) | +++ (Ki(cathepsin K)/Ki(calpain) ratio of >30) | +++ (Ki(cathepsin S)/Ki(calpain) ratio of >100)
3 | NC(=O)C(=O)C(Cc1ccccc1)NC(=O)[C@H]1CCC(=O)N1Cc1ccccc1 (mixture of isomers) [Example 1, (2R)—N-(4-Amino-3,4-dioxo-1-phenylbutan-2-yl)-1-benzyl-5-oxopyrrolidine-2-carboxamide] | < 50 | ++ (10<Ki(cathepsin B)/Ki(calpain)≦30) | ++ (10<Ki(cathepsin B)/Ki(calpain)≦30) | ++ (10<Ki(cathepsin B)/Ki(calpain)≦30) | +++ (Ki(cathepsin S)/Ki(calpain) ratio of >100)
4 | NC(=O)C(=O)C(Cc1ccccc1)NC(=O)[C@H]1CCC(=O)N1Cc1ccc(F)cc1 (stereo partly drawn) [Example 5, (2R)—N-(4-Amino-3,4-dioxo-1-phenylbutan-2-yl)-1-(4-fluorobenzyl)-5-oxopyrrolidine-2-carboxamide] | 50 to 100 | ++ (10<Ki(cathepsin B)/Ki(calpain)≦30) | ++ (10<Ki(cathepsin B)/Ki(calpain)≦30) | ++ (10<Ki(cathepsin B)/Ki(calpain)≦30) | ++ (30<Ki(cathepsin B)/Ki(calpain)≦100)
5 | CCNC(=O)C(=O)C(Cc1ccccc1)NC(=O)[C@H]1CCC(=O)N1Cc1ccccc1Cl (mixture of isomers) [Example 47, (2R)-1-(2-Chlorobenzyl)-N-(4-(ethylamino)-3,4-dioxo-1-phenylbutan-2-yl)-5-oxopyrrolidine-2-carboxamide] | 100 to 600 | +++ (Ki(cathepsin B)/Ki(calpain) ratio of >30) | +++ (Ki(cathepsin L)/Ki(calpain) ratio of >30) | +++ (Ki(cathepsin K)/Ki(calpain) ratio of >30) | ++ (30<Ki(cathepsin B)/Ki(calpain)≦100)
6 | O=C(NCc1ncco1)C(=O)C(Cc1ccccc1)NC(=O)[C@H]1CCC(=O)N1Cc1ccccc1 (stereo partly drawn) [Example 64, (2R)-1-Benzyl-N-(4-(oxazol-2-ylmethylamino)-3,4-dioxo-1-phenylbutan-2-yl)-5-oxopyrrolidine-2-carboxamide] | 100 to 600 | ++ (10<Ki(cathepsin B)/Ki(calpain)≦30) | ++ (10<Ki(cathepsin B)/Ki(calpain)≦30) | +++ (Ki(cathepsin K)/Ki(calpain) ratio of >30) | +++ (Ki(cathepsin S)/Ki(calpain) ratio of >100)
7 | NC(=O)C(=O)C(Cc1ccccc1)NC(=O)[C@H]1CCC(=O)N1c1ccccc1 (stereo partly drawn) [Example 15, (2R)—N-(4-Amino-3,4-dioxo-1-phenylbutan-2-yl)-5-oxo-1-phenylpyrrolidine-2-carboxamide] |  | ++ (10<Ki(cathepsin B)/Ki(calpain)≦30) | + (5<Ki(cathepsin L)/Ki(calpain)≦10) | + (5<Ki(cathepsin K)/Ki(calpain)≦10) | + (10<Ki(cathepsin S)/Ki(calpain)≦30)
8 | NC(=O)C(=O)C(Cc1ccccc1)NC(=O)[C@H]1CCC(=O)N1Cc1cccc(Cl)c1 (stereo partly drawn) [Example 3, (2R)—N-(4-Amino-3,4-dioxo-1-phenylbutan-2-yl)-1-(3-chlorobenzyl)-5-oxopyrrolidine-2-carboxamide] | < 50 | ++ (10<Ki(cathepsin B)/Ki(calpain)≦30) | ++ (10<Ki(cathepsin B)/Ki(calpain)≦30) | +++ (Ki(cathepsin K)/Ki(calpain) ratio of >30) | +++ (Ki(cathepsin S)/Ki(calpain) ratio of >100)
9 | O=C(NC1CC1)C(=O)C(Cc1ccccc1)NC(=O)[C@H]1CCC(=O)N1Cc1ccccc1Cl (mixture of isomers) [Example 46, (2R)-1-(2-Chlorobenzyl)-N-(4-(cyclopropylamino)-3,4-dioxo-1-phenylbutan-2-yl)-5-oxopyrrolidine-2-carboxamide] | 50 to 100 | ++ (10<Ki(cathepsin B)/Ki(calpain)≦30) | +++ (Ki(cathepsin L)/Ki(calpain) ratio of >30) | +++ (Ki(cathepsin K)/Ki(calpain) ratio of >30) | +++ (Ki(cathepsin S)/Ki(calpain) ratio of >100)
10 | O=C(NCc1cccs1)C(=O)C(Cc1ccccc1)NC(=O)[C@H]1CCC(=O)N1Cc1ccccc1 (mixture of isomers) [Example 60, (2R)-1-Benzyl-N-(3,4-dioxo-1-phenyl-4-(thiophen-2-ylmethylamino)butan-2-yl)-5-oxopyrrolidine-2-carboxamide] | 50 to 100 | +++ (Ki(cathepsin B)/Ki(calpain) ratio of >30) | ++ (10<Ki(cathepsin B)/Ki(calpain)≦30) | +++ (Ki(cathepsin K)/Ki(calpain) ratio of >30) | +++ (Ki(cathepsin S)/Ki(calpain) ratio of >100)
11 | O=C(NCc1ccncc1)C(=O)C(Cc1ccccc1)NC(=O)[C@H]1CCC(=O)N1Cc1ccccc1 (mixture of isomers) [Example 63, (2R)-1-Benzyl-N-(3,4-dioxo-1-phenyl-4-(pyridin-4-ylmethylamino)butan-2-yl)-5-oxopyrrolidine-2-carboxamide] | 50 to 100 | +++ (Ki(cathepsin B)/Ki(calpain) ratio of >30) | +++ (Ki(cathepsin L)/Ki(calpain) ratio of >30) | +++ (Ki(cathepsin K)/Ki(calpain) ratio of >30) | +++ (Ki(cathepsin S)/Ki(calpain) ratio of >100)

Reference: patent US9018206B2, “Carboxamide compounds and their use as calpain inhibitors” (AbbVie Deutschland GmbH & Co. KG, priority 2009, dated 2015)
